What was measured:
Assay type in all cases: in vivo
Avena fatua (AVEFA) [1] = assay: Example B post-emergence herbicidal activity, glasshouse pot test; details: 312 h, rate 250 g/ha, evaluated after 13 days, scale 0-100, read-out: Post-emergence activity AVEFA (100=total damage to plant; 0=no damage to plant)
Method: (§1) Seeds of a variety of test species were sown in standard soil in pots. After cultivation for one day (pre-emergence) or after 8 days cultivation (post-emergence) under controlled conditions in a glasshouse (at 24/16° C., day/night; 14 hours light; 65% humidity), the plants were sprayed with an aqueous spray solution derived from the formulation of the technical active ingredient of formula I in acetone/water (50:50) solution containing 0.5% Tween 20 (polyoxyethelyene sorbitan monolaurate, CAS RN 9005-64-5). The test plants were then grown in a glasshouse under controlled conditions in a glasshouse (at 24/16° C., day/night; 14 hours light; 65% humidity) and watered twice daily. After 13 days for pre and post-emergence, the test was evaluated (100=total damage to plant; 0=no damage to plant). Setaria faberi (SETFA), Lolium perenne (LOLPE), Alopecurus myosuroides (ALOMY), Echinochloa crus-galli (ECHCG), and Avena fatua (AVEFA). Post-Emergence Activity

[2] = tested on: Echinochloa crus-galli (ECHCG); assay: as above; details: 312 h, rate 250 g/ha, evaluated after 13 days, scale 0-100, read-out: Post-emergence activity ECHCG (100=total damage to plant; 0=no damage to plant)
Method: as §1

Lolium perenne (LOLPE) [3] = assay: as above; details: 312 h, rate 250 g/ha, evaluated after 13 days, scale 0-100, read-out: Post-emergence activity LOLPE (100=total damage to plant; 0=no damage to plant)
Method: as §1

[4] = tested on: Alopecurus myosuroides (ALOMY); assay: as above; details: 312 h, rate 250 g/ha, evaluated after 13 days, scale 0-100, read-out: Post-emergence activity ALOMY (100=total damage to plant; 0=no damage to plant)
Method: as §1

Avena fatua (AVEFA) [5] = assay: Example B pre-emergence herbicidal activity, glasshouse pot test; details: 312 h, rate 250 g/ha, evaluated after 13 days, scale 0-100, read-out: Pre-emergence activity AVEFA (100=total damage to plant; 0=no damage to plant)
Method: as §1, with “Pre-Emergence” for “Post-Emergence”

[6] = tested on: Echinochloa crus-galli (ECHCG); assay: as above; details: 312 h, rate 250 g/ha, evaluated after 13 days, scale 0-100, read-out: Pre-emergence activity ECHCG (100=total damage to plant; 0=no damage to plant)
Method: as §1, with “Pre-Emergence” for “Post-Emergence”

Lolium perenne (LOLPE) [7] = assay: as above; details: 312 h, rate 250 g/ha, evaluated after 13 days, scale 0-100, read-out: Pre-emergence activity LOLPE (100=total damage to plant; 0=no damage to plant)
Method: as §1, with “Pre-Emergence” for “Post-Emergence”

[8] = tested on: Alopecurus myosuroides (ALOMY); assay: as above; details: 312 h, rate 250 g/ha, evaluated after 13 days, scale 0-100, read-out: Pre-emergence activity ALOMY (100=total damage to plant; 0=no damage to plant)
Method: as §1, with “Pre-Emergence” for “Post-Emergence”

Structure (SMILES)	pest or weed control at 250 g/ha (Avena fatua (AVEFA) [1]) [%]	pest or weed control at 250 g/ha [2] [%]	pest or weed control at 250 g/ha (Lolium perenne (LOLPE) [3]) [%]	pest or weed control at 250 g/ha [4] [%]	pest or weed control at 250 g/ha (Avena fatua (AVEFA) [5]) [%]	pest or weed control at 250 g/ha [6] [%]	pest or weed control at 250 g/ha (Lolium perenne (LOLPE) [7]) [%]	pest or weed control at 250 g/ha [8] [%]
CCc1ccc(-c2ccc(Cl)c(F)c2F)cc1C1=C(O)CC(C)(C)CC1=O [Compound T30]	60	100	100	80	20	70	70	0
CCc1ccc(-c2ccc(Cl)c(C(F)(F)F)c2)cc1C1=C(O)C(C)(C)CC(C)(C)C1=O [Compound T65]	30	80	50	20	20	90	50	10
CCc1ccc(-c2ccc(Cl)cc2F)cc1C1=C(O)CCCC1=O [Compound T45]	90	100	100	40	20	100	100	20
CCc1ccc(-c2ccc(Cl)c(Cl)c2)cc1C1=C(O)CC(C)(C)CC1=O [Compound T22]	40	100	100	70	40	90	80	20
CCc1ccc(-c2ccc(Cl)c(Cl)c2)cc1C1=C(O)C(C)(C)CC(C)(C)C1=O [Compound T67]	20	80	40	20	0	60	10	10
CCc1ccc(-c2ccc(Cl)cc2Cl)cc1C1=C(O)C(C)(C)CC(C)(C)C1=O [Compound T61]	30	90	40	10	50	90	70	20
CCc1ccc(-c2ccc(Cl)nc2Cl)cc1C1=C(O)CCCC1=O [Compound T57]	40	80	60	50	0	20	10	0
CCc1ccc(-c2ccc(Cl)cc2)cc1C1=C(O)C(C)(C)CC(C)(C)C1=O [Compound T69]	40	100	100	20	0	90	90	10
CCc1ccc(-c2ccc(Cl)c(F)c2)cc1C1=C(O)CCCC1=O [Compound T56]	100	100	100	60	20	100	90	30
CCc1ccc(-c2ccc(Cl)c(F)c2F)cc1C1=C(O)C(C)(C)CCC1=O [Compound T16]	90	100	90	50	20	90	80	30
CCc1ccc(-c2ccc(Cl)c(Cl)c2)cc1C1=C(O)C(C)(C)CCC1=O [Compound T5]	90	100	80	70	0	0	0	0
CCc1ccc(-c2ccc(Cl)c(F)c2Cl)cc1C1C(=O)C(C)(C)CC(C)(C)C1=O [Compound T63]	40	80	80	20	50	90	90	20
CCc1ccc(-c2ccc(Cl)cc2Cl)cc1C1=C(O)C(C)(C)CCC1=O [Compound T18]	40	90	80	30	20	90	80	30
CCc1ccc(-c2ccc(Cl)c(OC)c2)cc1C1=C(O)C(C)(C)CC(C)(C)C1=O [Compound T66]	50	100	30	30	0	90	30	10
CCc1ccc(-c2ccc(C(F)(F)F)cc2)cc1C1=C(O)CC(C)(C)CC1=O [Compound T34]	100	100	100	100	0	50	30	20
CCc1ccc(-c2ccc(Cl)c(F)c2F)cc1C1=C(O)C(C)(C)CC(C)(C)C1=O [Compound T62]	80	80	80	60	50	90	90	60
CCc1ccc(-c2ccc(Cl)c(C(F)(F)F)c2)cc1C1=C(O)CC(C)(C)CC1=O [Compound T25]	80	100	100	80	20	80	70	30
CCc1ccc(-c2c(F)cc(Cl)cc2F)cc1C1=C(O)CCCC1=O [Compound T58]	90	100	90	60	0	90	70	20
CCc1ccc(-c2cc(Cl)c(Cl)cc2Cl)cc1C1=C(O)C(C)(C)CCC1=O [Compound T20]	40	80	70	0	0	90	50	0

From patent publication US8741806B2, “Herbicides” (Syngenta Limited, priority 2009, dated 2014)
